According to patent US11883468B2, “Compositions and methods to suppress tumor growth in bone, prevent cachectic muscle loss, and preserve skeletal integrity” (United States Government As Represented By The Department …, priority 2019, dated 2024):

Legend:
MDA-MB-231 BC cells = assay: EVOCA with MDA-MB-231 cells, tumor gene mRNA by PCR; type: cell-based, human; details: 7d EVOCA
Description: FIGS. 7A, 7B, and 7C show the effects of bPTH7-34DD on MDA-MB-231; 7d EVOCA, PCR as done in FIG. 5.
(§1) EVOCA (ex vivo organ co-culture assay) of breast cancer cells and bone: Segments of neonatal mouse bone are prepared by a modification of Mohammad et al [2008]. Calvariae from euthanized 14 day old Swiss Webster pups are cut into 5 mm disks with a biopsy punch, yielding two disks (hemi-calvariae) per pup, and placed into wells of uncoated 24-well plates. Calvariae from βArr2−/− and +/+ littermates, as available, can be shipped in sterile tubes in standard tissue culture medium by overnight FedEx from the Luttrell laboratory at Medical University of South Carolina. Bones shipped overnight in media survive the shipping and give reproducible results, compared to freshly harvested bones. […] At the end of the incubation, bone are either fixed and decalcified for routine histology or homogenized for RNA isolation with a bead beater, using QIAGEN RNeasy mini kits, converted to cDNA (Biorad iScript,), and analyzed by quantitative PCR using Biorad SYBR green PCR kits and a Biorad iCycler single-color real-time detection system. […] EVOCA cultures can be analyzed by histology and IHC staining. […]

bone = details: cited from earlier work
[1] = system: MDA-MB-231 breast cancer cells; assay: EVOCA (ex vivo organ co-culture assay of tumor + bone), tumor burden by SSQ-PCR for hRPL32; type: cell-based, human; details: 7d EVOCA, wt bones
Description: 7D EVOCA. Tumor burden by SSQ-PCR for hRPL32.
as §1, with “bones. Cancer cells (2-10×10^3, depending on cell types and ability to adhere to bones; e.g., 2,000 for MDA-MB-231) are added in 0.5 ml BGJb medium (Life Technologies) +10% fetal calf serum and incubated at 37° C. in 5% CO2.” for “bones.”

calvarial osteoblasts = details: osteoblasts from treated mice; cited from earlier work
[2] = 4 or 8 weeks, once-daily injection
[3] = continuous infusion, 40 μg/kg/d

Compound | tumor hPTHrP mRNA (MDA-MB-231 BC cells) | cortical bone parameters (periosteal circumference and cortical thickness) (bone; [2]) | mineral apposition (MAR, BFR) (bone; [2]) | tibial trabecular bone parameters (BV/TV, trabecular number) (bone; [2]) | elevation of urinary calcium excretion (bone; [3]) [×] | mRNA for Dars, aspartyl-tRNA synthetase, in bone (bone; [3]) | mRNA of Gab 1 in bone (bone; [3]) | serum osteocalcin (bone; once-daily injection) | osteoblast number and osteoid surface (bone; quantitative histomorphometry) | osteoclast numbers (bone; quantitative histomorphometry) | MDA-MB-231 tumor growth in bone [1] | anabolic markers of Obl activity (RUNX2, Alk Phos, Col1A1) (calvarial osteoblasts)
Fc1ccc(Cl)cc1-c1nc(Nc2ccncc2)c2nccnc2n1 [SD208] | not seen |  |  |  |  |  |  |  |  |  |  | 
CC[C@H](C)[C@H](NC(=O)[C@H](CCC(=O)O)NC(=O)[C@H](CO)NC(=O)[C@@H](NC(=O)[C@@H](N)CO)C(C)C)C(=O)N[C@@H](CCC(N)=O)C(=O)N[C@@H](CC(C)C)C(=O)N[C@@H](CCSC)C(=O)N[C@@H](Cc1cnc[nH]1)C(=O)N[C@@H](CC(N)=O)C(=O)N[C@@H](CC(C)C)C(=O)NCC(=O)N[C@@H](CCCCN)C(=O)N[C@@H](Cc1cnc[nH]1)C(=O)N[C@@H](CC(C)C)C(=O)N[C@@H](CC(N)=O)C(=O)N[C@@H](CO)C(=O)N[C@@H](CCSC)C(=O)N[C@@H](CCC(=O)O)C(=O)N[C@@H](CCCN=C(N)N)C(=O)N[C@H](C(=O)N[C@@H](CCC(=O)O)C(=O)N[C@@H](Cc1c[nH]c2ccccc12)C(=O)N[C@@H](CC(C)C)C(=O)N[C@@H](CCCN=C(N)N)C(=O)N[C@@H](CCCCN)C(=O)N[C@@H](CCCCN)C(=O)N[C@@H](CC(C)C)C(=O)N[C@@H](CCC(N)=O)C(=O)N[C@@H](CC(=O)O)C(=O)N[C@H](C(=O)N[C@@H](Cc1cnc[nH]1)C(=O)N[C@@H](CC(N)=O)C(=O)N[C@@H](Cc1ccccc1)C(=O)O)C(C)C)C(C)C [hPTH1-34] |  | increased only by hPTH1-34 | equivalently increased | increased by both | 5 | increased | doubled | equivalently raised | increased by both | increased only by hPTH1-34 | increased | strongly increased
